Source: US6291247A, “Methods of screening for factors that disrupt neurotrophin conformation and reduce neurotrophin biological activity” (priority 1996, dated 2001)
“Also recorded” adds a separate entry of the source. Bridges are numbered along the chain shown (N, C = ends).

Key:
[1] = system: p75^NTR; assay: 125I-NT-3 binding to p75NTR; conditions: 100 μM Zn2+, n = 3; 120 min
Procedure: Full length (1-118) mouse NGF purified by HPLC from 2.5S NGF (purity greater than 95%) was obtained from Cedarlane Laboratories (Toronto, Ont). The iodination of NGF was performed as previously described (Sutter, A, Riopelle, R. J., Harris-Warrick, R. M. & Shooter, E. M. Nerve growth factor receptors. J. Biol. Chem. 254, 5972-5982 (1979)). […] PC12 cells were grown in RPMI with 10% heat inactivated donor horse serum and 5% fetal calf serum. Each data point was set up in a single tube containing ^125 I-NGF (at the required concentration), 400,000 cells (for a final call concentration of 10^6 /ml), BDNF (at 40 nM for TrkA binding) and NGF (at 10 nM for non-specific binding) as required. The tubes were incubated for 2 hr at 4° C. and 100 μl aliquots (providing triplicate data points for each sample) were transferred to 400 μl microcentrifuges containing 200 μl of 10% glycerol in HKR. Tubes were centrifuged for 2 minutes at 5,000 rpm, the tip containing the cell pellet cut off and radioactivity bound to the cells was determined.
Human recombinant BDNF and human recombinant NT-3 were obtained from Alomone Laboratories (Israel). The iodination, crosslinking, and binding experiments using BDNF and NT-3 were performed using the methods described above for NGF. Neurite outgrowth assays were performed as described in the presence of 4.0 nM NT-3 or 8.0 nM BDNF.

[2] = system: DRG neurons; assay: NGF-mediated neurite outgrowth of DRG neurons, metal ions; type: cell-based, chick; conditions: 50 and 100 μM
Procedure: Dissosiated cells enriched for sensory neurons were prepared from ED8 chick DRG as described (Dostaler, S. M. et al. Characterization of a distinctive motif of the low molecular weight neurotrophin receptor that modulates NGF-mediated neurite growth. Eur. J. Neurosci. 8, 870-879 (1996)). Neurons were seeded at a density of 800-1000 cells/well in Ham's F-12 containing 5% FCS and NGF at 10 pM into wells of Terasaki plates treated with polyysine. The cells were incubated with the indicated additives at 37° C. in a 5% CO2 atmosphere. The cells on the entire lower horizontal surface of the well were scored for neurite growth at 18-20 hours using an inverted microscope fitted with phase contrast optics. A neurite was scored if its caliber from the origin to terminal was constant and its length was equal to or greater than 1.5 cell body diameters. Neurite growth was corrected for background (no NGF).

[3] = system: TrkA receptor; assay: Inhibition of TrkA phosphorylation by R11 in PC12 cells (Example 3); type: cell-based, rat
Procedure: Referring to FIG. 7C, the ability of R11 to influence TrkA phosphorylation was determined by incubating 10^7 PC12 cells (prepared as described above) in one mL HKR buffer with 50 ng NGF and the indicated concentrations of peptides for 15 min at 37° C. The cells were isolated by centrifugation, solubilized in lysis buffer and the TrkA receptor isolated as described above. The TrkA immunoprecipitated was dissociated in SDS reducing sample buffer and electrophoresed using a 6% polyacrylamide gel. The gel was then transferred to PVDF membrane (BioRad), probed with horseradish peroxidase-conjugated anti phosphotyrosine (RC20; Transduction) and developed using ECL (Amersham). All procedures were carried out according to the manufacturers' instructions.

Row | Molecule | % Maximum p75NTR binding, 125I-NT-3 [1] [% Maximum binding] | NGF-induced neurite extension [2] | NGF-induced TrkA phosphorylation ([3]; 200 μM, 50 ng NGF, 15 min at 37° C., PC12) | Basal TrkA phosphorylation ([3]; no NGF)
1 | [Zn+2] [Zn^2+] | 13.3 ± 9.5 | inhibited neurite extension |  | 
2 | NH2 -Cys-Gly-Ser-Glu-Val-Pro-Asn-Ser-Ala-Arg-Cys-Cys-Val-Cys-OH (H-CGSEVPNSARCCVC-OH; disulfide 1-14, 11-12) [R11, bicyclic peptide of NGF residues 68-58/108-110, two disulfide bonds] |  |  | abolished; also recorded: blocked | no influence
